Numbers after ± are expanded uncertainties.
Conditions: Liquid

CCCCCOC(C)=O [pentyl ethanoate]
mass density (343.15 K, 25000 kPa): 852.1 ± 6.3 kg/m3 | mass density (343.15 K, 30000 kPa): 857.3 ± 6.9 kg/m3 | mass density (343.15 K, 35000 kPa): 862.7 ± 7.5 kg/m3 | mass density (348.15 K, 100 kPa): 823.2 ± 3.3 kg/m3 | mass density (348.15 K, 1000 kPa): 824.6 ± 3.4 kg/m3 | mass density (348.15 K, 2000 kPa): 825.7 ± 3.5 kg/m3 | mass density (348.15 K, 2700 kPa): 826.5 ± 3.6 kg/m3 | mass density (348.15 K, 3000 kPa): 826.9 ± 3.7 kg/m3 | mass density (348.15 K, 5000 kPa): 828.8 ± 3.9 kg/m3 | mass density (348.15 K, 10000 kPa): 834 ± 4.5 kg/m3 | mass density (348.15 K, 15000 kPa): 838.9 ± 5.1 kg/m3 | mass density (348.15 K, 20000 kPa): 843.5 ± 5.7 kg/m3 | mass density (348.15 K, 25000 kPa): 847.9 ± 6.3 kg/m3 | mass density (348.15 K, 30000 kPa): 853.3 ± 6.9 kg/m3 | mass density (348.15 K, 35000 kPa): 858.8 ± 7.5 kg/m3 | mass density (353.15 K, 100 kPa): 818.7 ± 3.3 kg/m3 | mass density (353.15 K, 1000 kPa): 819.9 ± 3.4 kg/m3 | mass density (353.15 K, 2000 kPa): 821.1 ± 3.5 kg/m3 | mass density (353.15 K, 2700 kPa): 821.9 ± 3.6 kg/m3 | mass density (353.15 K, 3000 kPa): 822.3 ± 3.7 kg/m3 | mass density (353.15 K, 5000 kPa): 824.4 ± 3.9 kg/m3 | mass density (353.15 K, 10000 kPa): 829.8 ± 4.5 kg/m3 | mass density (353.15 K, 15000 kPa): 835 ± 5.1 kg/m3 | mass density (353.15 K, 20000 kPa): 839.7 ± 5.7 kg/m3 | mass density (353.15 K, 25000 kPa): 844.3 ± 6.3 kg/m3 | mass density (353.15 K, 30000 kPa): 849.8 ± 6.9 kg/m3 | mass density (353.15 K, 35000 kPa): 855.4 ± 7.5 kg/m3 | mass density (358.15 K, 100 kPa): 811.3 ± 3.3 kg/m3 | mass density (358.15 K, 1000 kPa): 812.2 ± 3.4 kg/m3 | mass density (358.15 K, 2000 kPa): 813.4 ± 3.5 kg/m3 | mass density (358.15 K, 2700 kPa): 814.1 ± 3.6 kg/m3 | mass density (358.15 K, 3000 kPa): 814.5 ± 3.7 kg/m3 | mass density (358.15 K, 5000 kPa): 816.9 ± 3.9 kg/m3 | mass density (358.15 K, 10000 kPa): 822.5 ± 4.5 kg/m3 | mass density (358.15 K, 15000 kPa): 827.7 ± 5.1 kg/m3 | mass density (358.15 K, 20000 kPa): 832.5 ± 5.7 kg/m3 | mass density (358.15 K, 25000 kPa): 838 ± 6.3 kg/m3 | mass density (358.15 K, 30000 kPa): 843.9 ± 6.9 kg/m3 | mass density (358.15 K, 35000 kPa): 849.7 ± 7.5 kg/m3 | mass density (363.15 K, 100 kPa): 806.3 ± 3.3 kg/m3 | mass density (363.15 K, 1000 kPa): 807.4 ± 3.4 kg/m3 | mass density (363.15 K, 2000 kPa): 808.7 ± 3.5 kg/m3 | mass density (363.15 K, 2700 kPa): 809.6 ± 3.6 kg/m3 | mass density (363.15 K, 3000 kPa): 809.9 ± 3.7 kg/m3 | mass density (363.15 K, 5000 kPa): 812.4 ± 3.9 kg/m3 | mass density (363.15 K, 10000 kPa): 818.1 ± 4.5 kg/m3 | mass density (363.15 K, 15000 kPa): 823.4 ± 5.1 kg/m3 | mass density (363.15 K, 20000 kPa): 828.3 ± 5.7 kg/m3 | mass density (363.15 K, 25000 kPa): 833.9 ± 6.3 kg/m3 | mass density (363.15 K, 30000 kPa): 839.9 ± 6.9 kg/m3 | mass density (363.15 K, 35000 kPa): 845.6 ± 7.5 kg/m3 | mass density (368.15 K, 100 kPa): 801.2 ± 3.3 kg/m3 | mass density (368.15 K, 1000 kPa): 802.3 ± 3.4 kg/m3 | mass density (368.15 K, 2000 kPa): 803.7 ± 3.6 kg/m3 | mass density (368.15 K, 2700 kPa): 804.6 ± 3.6 kg/m3 | mass density (368.15 K, 3000 kPa): 805 ± 3.7 kg/m3 | mass density (368.15 K, 5000 kPa): 807.5 ± 3.9 kg/m3 | mass density (368.15 K, 10000 kPa): 813.4 ± 4.5 kg/m3 | mass density (368.15 K, 15000 kPa): 818.8 ± 5.1 kg/m3 | mass density (368.15 K, 20000 kPa): 824 ± 5.7 kg/m3 | mass density (368.15 K, 25000 kPa): 829.8 ± 6.3 kg/m3 | mass density (368.15 K, 30000 kPa): 835.9 ± 6.9 kg/m3 | mass density (368.15 K, 35000 kPa): 841.4 ± 7.5 kg/m3 | mass density (373.15 K, 100 kPa): 795.5 ± 3.3 kg/m3 | mass density (373.15 K, 1000 kPa): 796.4 ± 3.4 kg/m3 | mass density (373.15 K, 2000 kPa): 797.7 ± 3.6 kg/m3 | mass density (373.15 K, 2700 kPa): 799.5 ± 3.6 kg/m3 | mass density (373.15 K, 3000 kPa): 799 ± 3.7 kg/m3 | mass density (373.15 K, 5000 kPa): 802.5 ± 3.9 kg/m3 | mass density (373.15 K, 10000 kPa): 808.2 ± 4.5 kg/m3 | mass density (373.15 K, 15000 kPa): 813.9 ± 5.1 kg/m3 | mass density (373.15 K, 20000 kPa): 819.8 ± 5.7 kg/m3 | mass density (373.15 K, 25000 kPa): 826.3 ± 6.3 kg/m3 | mass density (373.15 K, 30000 kPa): 831.3 ± 6.9 kg/m3 | mass density (378.15 K, 100 kPa): 790.4 ± 3.3 kg/m3 | mass density (378.15 K, 1000 kPa): 791.6 ± 3.4 kg/m3 | mass density (378.15 K, 2000 kPa): 793.1 ± 3.6 kg/m3 | mass density (378.15 K, 2700 kPa): 794 ± 3.7 kg/m3 | mass density (378.15 K, 3000 kPa): 794.4 ± 3.7 kg/m3 | mass density (378.15 K, 5000 kPa): 797.1 ± 3.9 kg/m3 | mass density (378.15 K, 10000 kPa): 803.5 ± 4.5 kg/m3 | mass density (383.15 K, 100 kPa): 786.8 ± 3.4 kg/m3 | mass density (383.15 K, 1000 kPa): 788.1 ± 3.5 kg/m3 | mass density (383.15 K, 2000 kPa): 789.6 ± 3.6 kg/m3 | mass density (383.15 K, 2700 kPa): 790.7 ± 3.7 kg/m3 | mass density (383.15 K, 3000 kPa): 791.1 ± 3.7 kg/m3 | mass density (383.15 K, 5000 kPa): 793.9 ± 3.9 kg/m3 | mass density (383.15 K, 10000 kPa): 800.5 ± 4.5 kg/m3 | mass density (383.15 K, 15000 kPa): 806.6 ± 5.1 kg/m3 | mass density (383.15 K, 20000 kPa): 811.7 ± 5.8 kg/m3 | mass density (383.15 K, 25000 kPa): 816.5 ± 6.4 kg/m3 | mass density (383.15 K, 30000 kPa): 824 ± 7 kg/m3 | mass density (383.15 K, 35000 kPa): 830 ± 7.6 kg/m3 | mass density (388.15 K, 100 kPa): 781.9 ± 3.4 kg/m3 | mass density (388.15 K, 1000 kPa): 783.4 ± 3.5 kg/m3 | mass density (388.15 K, 2000 kPa): 785 ± 3.6 kg/m3 | mass density (388.15 K, 2700 kPa): 786 ± 3.7 kg/m3 | mass density (388.15 K, 3000 kPa): 786.5 ± 3.7 kg/m3 | mass density (388.15 K, 5000 kPa): 789.4 ± 4 kg/m3 | mass density (388.15 K, 10000 kPa): 796.3 ± 4.6 kg/m3 | mass density (388.15 K, 15000 kPa): 802.5 ± 5.2 kg/m3 | mass density (388.15 K, 20000 kPa): 808.1 ± 5.8 kg/m3 | mass density (388.15 K, 25000 kPa): 813.7 ± 6.4 kg/m3 | mass density (388.15 K, 30000 kPa): 819.7 ± 7 kg/m3 | mass density (388.15 K, 35000 kPa): 826.2 ± 7.6 kg/m3 | mass density (393.15 K, 100 kPa): 777.2 ± 3.4 kg/m3 | mass density (393.15 K, 1000 kPa): 778.7 ± 3.5 kg/m3 | mass density (393.15 K, 2000 kPa): 780.3 ± 3.6 kg/m3 | mass density (393.15 K, 2700 kPa): 781.4 ± 3.7 kg/m3 | mass density (393.15 K, 3000 kPa): 781.9 ± 3.7 kg/m3 | mass density (393.15 K, 5000 kPa): 784.9 ± 4 kg/m3 | mass density (393.15 K, 10000 kPa): 791.9 ± 4.6 kg/m3 | mass density (393.15 K, 15000 kPa): 798.4 ± 5.2 kg/m3 | mass density (393.15 K, 20000 kPa): 803.9 ± 5.8 kg/m3 | mass density (393.15 K, 25000 kPa): 809.7 ± 6.4 kg/m3 | mass density (393.15 K, 30000 kPa): 815.7 ± 7 kg/m3 | mass density (393.15 K, 35000 kPa): 822.2 ± 7.6 kg/m3
